{
  "source": "patent US20160082159A1",
  "about": "“BALLOON SURFACE COATING” (priority 2013, published 2016)",
  "origin": "cited, not measured here",
  "conditions": "in humans",
  "data": [
    {"smiles": "CC(=O)O[C@H]1C(=O)[C@@]2(C)[C@H]([C@H](OC(=O)c3ccccc3)[C@]3(O)C[C@H](OC(=O)[C@H](O)[C@@H](NC(=O)c4ccccc4)c4ccccc4)C(C)=C1C3(C)C)[C@]1(OC(C)=O)CO[C@@H]1C[C@@H]2O", "note": "[paclitaxel]", "values": [
      {"measurement": "normal plasma half-life of paclitaxel", "value": "approximately 60 min"}
    ]}
  ]
}
